Read-outs that look alike come from different tables or passages of the source.
Legend:
Assay type in all cases: cell-based
[1] = biological target: T1, hKv1.5 potassium channels (Homo sapiens, UniProt P22460); experiment: hKv1.5 potassium channel automated patch clamp; settings: CHO cells, read-out: Kv1.5 ion channel inhibition
T1 construct: expressed in transfected cells; host or cells: CHO cells
Method: (§1) Compounds of the present invention were tested for their anti-arrhythmic activity in a series of in vitro cardiac ion channel assays using cloned human channels expressed in CHO cells or HEK293 cells: • 1. Cloned L-type calcium channels (hCav1.2, encoded by the human CACNA1C gene and coexpressed with the (32 subunit, encoded by the human CACNB2 gene and the α2δ1 subunit encoded by the human CACNA2D1 gene, in CHO cells), responsible for Ica,L, high threshold calcium current. • 2. Cloned hERG potassium channels (encoded by the KCNH2 gene and expressed in human embryonic kidney, HEK293, cells) responsible for IKr. • 3. Cloned hKir2.1 potassium channels (encoded by the human KCNJ2 gene and expressed in HEK293 cells), responsible for IKI, inwardly rectifying potassium current. • 4. Cloned hKvLQT1/hminK potassium channels (encoded by the human KCNQ1 and KCNE1 genes and coexpressed in CHO cells), responsible for IKs, slow delayed rectifier potassium current. • 5. Cloned hKv1.5 potassium channels (encoded by the human KCNA5 gene and expressed in CHO cells), responsible for IKur, ultra-rapid delayed rectifier potassium current. • 6. Cloned hNav1.5 sodium channels (SCN5A gene, expressed in CHO cells). • 7. Cloned hKir3.1/hKir3.4 potassium channels (expressed by the human KCNJ3 and KCNJ5 genes and co-expressed in HEK293 cells) responsible for IACh, inwardly rectifying potassium current.
(§2) One concentration of a compound of the present invention was applied for a […] interval via disposable polyethylene micropipette tips to naïve cells (n≧2, where n=the number cells/concentration). Each solution exchange, performed in quadruplicate, consisted of aspiration and replacement of 45 μL volume of the extracellular well of the Sealchip16. Duration of exposure to the test compound was three minutes. For the hKir3.1/hKir3.4 assay, two concentrations of a compound of the present invention were used and the duration of exposure was 3 minutes.
(§3) In preparation for an automated patch clamp procedure recording session, intracellular solution was loaded into the intracellular compartments of the Sealchip16 or Qplate planar electrode. Cell suspension was pipetted into the extracellular compartments of the Sealchip16 or Qplate planar electrode. After establishment of a whole-cell configuration, membrane currents were recorded using dual-channel patch clamp amplifiers in the PatchXpress® or Qpatch HT® system. Before digitization, the current records were low-pass filtered at one-fifth of the sampling frequency. […]
Onset and steady state block of hKv1.5 current was measured using a pulse pattern with fixed amplitudes (depolarization: +20 mV amplitude, 300 ms duration) repeated at 10 s intervals from a holding potential of −80 mV. Current amplitude was measured at the end of the step to +20 mV.

[2] = biological target: T2, hKvLQT1/hminK potassium channels (Homo sapiens, UniProt P51787); experiment: hKvLQT1/hminK potassium channel automated patch clamp; settings: CHO cells, read-out: KvLQT ion channel inhibition
T2 construct: expressed in transfected cells; host or cells: CHO cells
Method: as §1, §2
In preparation for an automated patch clamp procedure recording session, intracellular solution was loaded into the intracellular compartments of the Sealchip16 or Qplate planar electrode. […] After establishment of a whole-cell configuration, membrane currents were recorded using dual-channel patch clamp amplifiers in the PatchXpress® or Qpatch HT® system. […]
Onset and steady state block of hKvLQT1/hminK current was measured using a pulse pattern with fixed amplitudes (depolarization: +40 mV for 2 s; repolarization: −40 mV for 0.5 s) repeated at 15 s intervals from a holding potential of −80 mV. Current amplitude was measured at the end of the step to +40 mV. […] Leakage current was measured after chromanol 293B addition and subtracted from the total membrane current record.

[3] = biological target: T3, hKir3.1/hKir3.4 potassium channels (Homo sapiens, UniProt P48544+P48549); experiment: hKir3.1/hKir3.4 potassium channel automated patch clamp; settings: HEK293 cells; for inhibition at 1 µM: read-out: K(ach) @ 1 μM ion channel inhibition; for inhibition at 10 µM: read-out: K(ach) ion channel inhibition
T3 construct: expressed in transfected cells; host or cells: HEK293 cells
T3 sequence (P48549 1-501): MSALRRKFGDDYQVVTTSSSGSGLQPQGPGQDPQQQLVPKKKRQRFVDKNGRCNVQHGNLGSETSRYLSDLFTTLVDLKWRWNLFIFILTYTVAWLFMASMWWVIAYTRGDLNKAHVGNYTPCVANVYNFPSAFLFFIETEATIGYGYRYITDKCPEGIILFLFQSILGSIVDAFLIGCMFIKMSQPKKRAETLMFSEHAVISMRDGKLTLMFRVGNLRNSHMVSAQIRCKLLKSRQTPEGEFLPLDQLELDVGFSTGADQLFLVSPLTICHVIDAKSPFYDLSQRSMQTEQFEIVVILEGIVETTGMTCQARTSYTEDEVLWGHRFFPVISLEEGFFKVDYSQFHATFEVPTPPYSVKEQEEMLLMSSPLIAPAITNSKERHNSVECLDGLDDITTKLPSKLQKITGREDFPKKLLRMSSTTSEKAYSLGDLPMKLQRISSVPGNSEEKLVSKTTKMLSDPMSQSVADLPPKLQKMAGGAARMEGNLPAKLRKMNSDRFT
T3 sequence (P48544 1-419): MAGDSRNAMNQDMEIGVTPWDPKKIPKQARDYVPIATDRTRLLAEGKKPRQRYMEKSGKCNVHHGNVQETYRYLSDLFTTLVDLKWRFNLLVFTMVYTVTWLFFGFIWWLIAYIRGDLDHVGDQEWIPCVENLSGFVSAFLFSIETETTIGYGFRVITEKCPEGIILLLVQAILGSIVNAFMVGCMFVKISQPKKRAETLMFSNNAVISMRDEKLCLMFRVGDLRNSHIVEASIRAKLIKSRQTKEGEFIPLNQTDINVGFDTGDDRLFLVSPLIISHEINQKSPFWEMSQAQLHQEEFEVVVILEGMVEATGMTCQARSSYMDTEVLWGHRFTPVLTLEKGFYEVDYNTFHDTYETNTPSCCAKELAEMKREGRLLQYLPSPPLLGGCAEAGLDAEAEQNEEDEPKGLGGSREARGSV
Method: as §1, §2
(§4) In preparation for an automated patch clamp procedure recording session, intracellular solution was loaded into the intracellular compartments of the Sealchip16 or Qplate planar electrode. Cell suspension was pipetted into the extracellular compartments of the Sealchip16 or Qplate planar electrode. After establishment of a whole-cell configuration, membrane currents were recorded using dual-channel patch clamp amplifiers in the PatchXpress® or Qpatch HT® system. Before digitization, the current records were low-pass filtered at one-fifth of the sampling frequency.
(§5) Valid whole-call recordings met the following criteria: • 1. Membrane resistance (Rm)≧200 MΩ • 2. Leak current≦25% channel current. hCav1.2 Test Procedure
The in vitro effects of the compounds of the present invention were evaluated at room temperature using the PatchXpress (Model 7000A, Molecular Devices, Union City, Calif.), an automated parallel patch clamp system.

[4] = biological target: T4, hKir2.1 potassium channels (Homo sapiens, UniProt P63252); experiment: hKir2.1 potassium channel automated patch clamp; settings: HEK293 cells, read-out: Kir2.1 ion channel inhibition
T4 construct: expressed in transfected cells; host or cells: HEK293 cells
T4 sequence (P63252 1-427): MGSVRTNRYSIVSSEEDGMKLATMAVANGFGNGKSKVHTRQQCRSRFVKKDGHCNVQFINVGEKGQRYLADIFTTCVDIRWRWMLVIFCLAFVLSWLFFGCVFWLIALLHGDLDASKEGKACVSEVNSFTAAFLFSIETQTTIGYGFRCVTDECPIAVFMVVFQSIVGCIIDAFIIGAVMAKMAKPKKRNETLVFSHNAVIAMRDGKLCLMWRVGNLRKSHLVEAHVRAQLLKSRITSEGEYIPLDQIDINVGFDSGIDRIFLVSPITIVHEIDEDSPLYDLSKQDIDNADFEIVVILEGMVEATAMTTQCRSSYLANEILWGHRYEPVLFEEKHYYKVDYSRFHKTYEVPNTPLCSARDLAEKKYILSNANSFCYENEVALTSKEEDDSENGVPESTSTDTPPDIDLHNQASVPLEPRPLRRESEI
Method: as §1, §2
In preparation for an automated patch clamp procedure recording session, intracellular solution was loaded into the intracellular compartments of the Sealchip16 or Qplate planar electrode. Cell suspension was pipetted into the extracellular compartments of the Sealchip16 or Qplate planar electrode. After establishment of a whole-cell configuration, membrane currents were recorded using dual-channel patch clamp amplifiers in the PatchXpress® or Qpatch HT® system. […]
Onset and steady state block of hKir2.1 current was measured using a pulse pattern with fixed amplitudes (hyperpolarization: −110 mV amplitude, 300 ms duration) repeated at 10 s intervals from a holding potential of −70 mV. Current amplitude was measured at the end of the step to −110 mV.

[5] = biological target: T5, hCav1.2/β2/α2δ channels (Homo sapiens, UniProt Q13936); experiment: hCav1.2 L-type calcium channel automated patch clamp; settings: CHO cells, read-out: Cav1.2 ion channel inhibition
T5 construct: expressed in transfected cells; host or cells: CHO cells
Method: as §1, §2, §3
Onset and steady state block of hCav1.2/β2/α2δ channels were measured using a stimulus voltage pattern consisting of a depolarizing test pulse (duration, 200 ms; amplitude, 10 mV) at 10 s intervals from a −80 mV holding potential. Peak current was measured during the step to 10 mV. […]

[6] = biological target: T6, hERG potassium channel (KCNH2, IKr) (Homo sapiens, UniProt Q12809); experiment: hERG potassium channel automated patch clamp; settings: HEK293 cells expressing cloned hERG potassium channels, read-out: hERG ion channel inhibition
T6 construct: expressed in transfected cells; host or cells: HEK293 cells
T6 sequence (Q12809 whole entry): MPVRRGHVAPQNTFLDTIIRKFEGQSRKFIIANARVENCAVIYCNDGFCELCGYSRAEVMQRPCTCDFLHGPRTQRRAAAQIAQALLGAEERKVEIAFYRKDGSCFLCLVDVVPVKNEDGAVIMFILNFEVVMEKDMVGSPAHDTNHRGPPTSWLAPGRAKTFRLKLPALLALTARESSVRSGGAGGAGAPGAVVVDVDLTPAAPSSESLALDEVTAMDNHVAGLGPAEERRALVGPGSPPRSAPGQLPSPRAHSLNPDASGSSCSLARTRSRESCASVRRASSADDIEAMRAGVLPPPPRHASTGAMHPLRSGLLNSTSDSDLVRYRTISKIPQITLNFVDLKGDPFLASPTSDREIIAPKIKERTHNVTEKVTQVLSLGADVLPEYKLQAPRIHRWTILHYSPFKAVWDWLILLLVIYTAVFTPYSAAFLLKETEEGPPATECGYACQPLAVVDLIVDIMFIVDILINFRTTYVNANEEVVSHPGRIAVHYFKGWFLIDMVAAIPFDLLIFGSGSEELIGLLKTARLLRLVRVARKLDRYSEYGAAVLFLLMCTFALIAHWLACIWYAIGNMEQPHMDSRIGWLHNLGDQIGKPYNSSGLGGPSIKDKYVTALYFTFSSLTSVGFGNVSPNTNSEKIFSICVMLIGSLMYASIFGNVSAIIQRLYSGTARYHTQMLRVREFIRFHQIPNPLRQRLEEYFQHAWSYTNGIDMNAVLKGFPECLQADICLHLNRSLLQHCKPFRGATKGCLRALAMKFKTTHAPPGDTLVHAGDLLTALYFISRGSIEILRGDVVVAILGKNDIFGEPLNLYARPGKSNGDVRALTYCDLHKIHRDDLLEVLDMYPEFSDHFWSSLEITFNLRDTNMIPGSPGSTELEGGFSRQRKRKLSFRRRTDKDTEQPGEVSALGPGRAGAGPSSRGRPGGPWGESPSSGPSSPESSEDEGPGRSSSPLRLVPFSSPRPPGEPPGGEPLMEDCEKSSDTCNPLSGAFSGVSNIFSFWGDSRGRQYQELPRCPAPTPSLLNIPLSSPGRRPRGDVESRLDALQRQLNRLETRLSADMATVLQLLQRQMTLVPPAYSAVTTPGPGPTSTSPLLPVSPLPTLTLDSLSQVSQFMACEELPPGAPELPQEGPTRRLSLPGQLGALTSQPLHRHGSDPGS
Method: One concentration of a compound of the present invention was applied for a five-minute interval via disposable polyethylene micropipette tips to naïve cells (n≧2, where n=the number cells/concentration). Each solution exchange, performed in quadruplicate, consisted of aspiration and replacement of 45 μL volume of the extracellular well of the Sealchip16. Duration of exposure to the test compound was three minutes.
Onset and block of hERG current was measured using a stimulus voltage pattern consisting of a 500 ms prepulse to −40 mV (leakage subtraction), a 2-second activating pulse to +40 mV, followed by a 2-second test pulse to −40 mV. Leakage current was calculated from the current amplitude evoked by the prepulse and subtracted from the total membrane current record.

[7] = biological target: T7, hNav1.5 sodium channels (Homo sapiens, UniProt Q14524); experiment: hNav1.5 sodium channel automated patch clamp; settings: CHO cells
T7 construct: expressed in transfected cells; host or cells: CHO cells
T7 sequence (Q14524 whole entry): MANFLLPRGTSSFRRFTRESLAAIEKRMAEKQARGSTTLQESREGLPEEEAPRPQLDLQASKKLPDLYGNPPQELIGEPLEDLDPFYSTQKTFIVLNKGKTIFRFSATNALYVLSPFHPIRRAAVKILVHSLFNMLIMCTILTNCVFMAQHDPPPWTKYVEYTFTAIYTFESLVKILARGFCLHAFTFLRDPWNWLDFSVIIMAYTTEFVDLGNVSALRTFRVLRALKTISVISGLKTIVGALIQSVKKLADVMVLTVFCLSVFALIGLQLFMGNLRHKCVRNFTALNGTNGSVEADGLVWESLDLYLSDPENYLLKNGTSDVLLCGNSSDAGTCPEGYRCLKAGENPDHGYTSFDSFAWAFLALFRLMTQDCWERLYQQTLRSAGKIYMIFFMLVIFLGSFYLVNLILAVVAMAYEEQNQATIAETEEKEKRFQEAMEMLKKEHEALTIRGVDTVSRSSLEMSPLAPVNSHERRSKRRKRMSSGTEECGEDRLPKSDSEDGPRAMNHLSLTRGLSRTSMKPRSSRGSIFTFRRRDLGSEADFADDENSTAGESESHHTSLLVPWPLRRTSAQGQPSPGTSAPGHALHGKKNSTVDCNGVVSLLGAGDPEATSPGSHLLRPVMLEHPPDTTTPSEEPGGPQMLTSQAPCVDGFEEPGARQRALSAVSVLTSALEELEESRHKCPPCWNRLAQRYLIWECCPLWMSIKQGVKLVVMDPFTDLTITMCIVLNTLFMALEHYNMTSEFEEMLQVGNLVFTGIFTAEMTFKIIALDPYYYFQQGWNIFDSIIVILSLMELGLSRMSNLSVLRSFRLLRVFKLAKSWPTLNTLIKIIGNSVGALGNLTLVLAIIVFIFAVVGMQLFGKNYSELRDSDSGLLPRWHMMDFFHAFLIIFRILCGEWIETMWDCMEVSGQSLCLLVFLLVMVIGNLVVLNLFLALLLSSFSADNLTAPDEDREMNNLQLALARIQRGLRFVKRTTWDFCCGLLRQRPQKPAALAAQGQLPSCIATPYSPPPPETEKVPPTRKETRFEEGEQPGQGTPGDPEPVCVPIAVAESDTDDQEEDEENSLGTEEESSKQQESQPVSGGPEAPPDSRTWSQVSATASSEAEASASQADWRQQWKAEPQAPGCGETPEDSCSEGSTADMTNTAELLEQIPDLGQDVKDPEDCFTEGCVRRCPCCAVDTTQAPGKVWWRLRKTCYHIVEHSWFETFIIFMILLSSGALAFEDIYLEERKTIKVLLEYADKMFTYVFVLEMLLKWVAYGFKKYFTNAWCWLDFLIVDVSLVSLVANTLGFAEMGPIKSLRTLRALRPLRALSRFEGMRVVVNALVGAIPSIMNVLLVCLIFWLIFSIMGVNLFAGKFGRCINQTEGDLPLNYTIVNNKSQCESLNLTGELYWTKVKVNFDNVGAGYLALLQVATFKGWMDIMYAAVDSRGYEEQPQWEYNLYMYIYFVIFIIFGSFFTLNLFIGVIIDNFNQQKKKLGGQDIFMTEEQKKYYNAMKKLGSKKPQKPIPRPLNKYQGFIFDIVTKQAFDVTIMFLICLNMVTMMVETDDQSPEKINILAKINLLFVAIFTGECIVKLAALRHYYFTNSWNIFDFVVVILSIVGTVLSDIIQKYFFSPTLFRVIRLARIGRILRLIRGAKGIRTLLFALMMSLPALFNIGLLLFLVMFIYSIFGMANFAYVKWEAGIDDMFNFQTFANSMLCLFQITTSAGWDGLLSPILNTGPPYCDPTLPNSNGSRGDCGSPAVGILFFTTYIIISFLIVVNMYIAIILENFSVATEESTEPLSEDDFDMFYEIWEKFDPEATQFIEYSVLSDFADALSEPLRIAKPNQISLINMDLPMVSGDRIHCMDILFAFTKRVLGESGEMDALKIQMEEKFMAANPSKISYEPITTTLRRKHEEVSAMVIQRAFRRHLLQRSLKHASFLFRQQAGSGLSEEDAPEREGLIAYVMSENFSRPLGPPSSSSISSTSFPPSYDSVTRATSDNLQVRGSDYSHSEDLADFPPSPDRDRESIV
Method: as §1, §2, §4, §5
Onset and steady-state block of hNav1.5 current was measured using double pulse pattern consisting of a series of two depolarizing test pulses to −15 mV. From a holding potential of −80 mV, an initial hyperpolarizing conditioning pre-pulse (−120 mV amplitude, 200 ms duration,) was followed immediately by the first depolarizing test pulse to −15 mV (200 ms duration). This was followed by a hyperpolarizing conditioning inter-pulse to −80 mV (200 ms duration) and then a second depolarizing test pulse to −15 mV for 20 ms. The pulse pattern was repeated at 10 s intervals and peak current amplitudes at both test pulses were measured.

[8] = phasic block, read-out: Nav1.5 phasic ion channel inhibition
[9] = tonic block, read-out: Nav1.5 tonic ion channel inhibition

T1 sequence (P22460 whole entry): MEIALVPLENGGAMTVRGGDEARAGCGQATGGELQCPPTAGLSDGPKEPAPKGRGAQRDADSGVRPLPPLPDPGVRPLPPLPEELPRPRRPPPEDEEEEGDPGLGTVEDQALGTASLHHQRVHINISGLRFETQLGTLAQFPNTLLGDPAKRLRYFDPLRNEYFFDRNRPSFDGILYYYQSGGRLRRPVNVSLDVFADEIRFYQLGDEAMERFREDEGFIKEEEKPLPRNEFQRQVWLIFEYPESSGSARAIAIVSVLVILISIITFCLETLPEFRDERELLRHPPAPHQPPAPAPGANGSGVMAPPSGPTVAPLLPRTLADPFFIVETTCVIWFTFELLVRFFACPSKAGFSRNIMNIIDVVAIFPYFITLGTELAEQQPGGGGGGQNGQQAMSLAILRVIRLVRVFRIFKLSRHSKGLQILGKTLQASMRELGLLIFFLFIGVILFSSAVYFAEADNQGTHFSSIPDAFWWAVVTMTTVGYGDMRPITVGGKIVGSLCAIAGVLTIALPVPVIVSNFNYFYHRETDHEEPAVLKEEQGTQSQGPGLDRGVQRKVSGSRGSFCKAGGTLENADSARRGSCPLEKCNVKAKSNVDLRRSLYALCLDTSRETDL

inhibition at 10 µM [1] [%]	inhibition at 10 µM [2] [%]	inhibition at 1 µM [3] [%]	inhibition at 10 µM [3] [%]	inhibition at 10 µM [4] [%]	SMILES	inhibition at 10 µM [5] [%]	inhibition at 3 min, 10 µM [6] [%]	inhibition at 10 µM [7, 8] [%]	inhibition at 10 µM [7, 9] [%]
54	49	16	49	0.3	CCCCc1oc2ccccc2c1C(=O)c1cc(C(F)(F)F)c(OCCN(CC)CC)c(C(F)(F)F)c1 [Compound 1, (2-butylbenzofuran-3-yl)(4-(2-(diethylamino)ethoxy)-3,5-bis(trifluoromethyl)phenyl)methanone]	101	55	26	11.5
25	8.4	2.1	11	9.7	CCCCc1oc2ccccc2c1C(=O)c1ccc(OCCN(CC)CC)c(C(F)(F)F)c1 [Compound 3, (2-butylbenzofuran-3-yl)(4-(2-(diethylamino)ethoxy)-3-(trifluoromethyl)phenyl)methanone]	2	74	86	48
21	2.5	1.4	4.6	2.7	CCCCc1oc2ccccc2c1C(=O)c1cc(I)c(OCCN(CC)CC)c(C(F)(F)F)c1 [Compound 2, (2-butylbenzofuran-3-yl)(4-(2-(diethylamino)ethoxy)-3-iodo-5-(trifluoromethyl)phenyl) methanone]	81	75	44	23

SMILES	inhibition at 10 µM [1] [%]	inhibition at 10 µM [2] [%]	inhibition at 1 µM [3] [%]	inhibition at 10 µM [3] [%]	inhibition at 10 µM [4] [%]	inhibition at 10 µM [5] [%]	inhibition at 3 min, 10 µM [6] [%]	inhibition at 10 µM [7, 8] [%]	inhibition at 10 µM [7, 9] [%]
CCCCc1oc2ccccc2c1C(=O)c1cc(I)c(OCCN(CC)CC)c(I)c1 [Amiodarone, 2-n-butyl 3-[4-(2-diethylaminoethoxy) 3,5-diiodobenzoyl] benzofuran, reference compound]	0.7	-0.6	4.5	23	0.9	7.7		44	6.8

Reference: patent US9895340B2, “Fluorinated benzofuran derivatives” (SciFluor Life Sciences, Inc., priority 2012, dated 2018)
